These results are taken from publication PMC8508526 (Cancers, 2021).

Positions of bridges follow the written chain, without caps; N, C: chain ends. No end group written: not given here.

For data set [1] the following is noted: 0.25 to 20 mg/mL in MilliQ water, 0.9% NaCl or 0.9% NaCl with 15 mM Tris; from lyophilized powder; A205, path length 0.05 cm, compared to powder weighing. The protocol:
Absorbance values at 205 nm were measured on a NanoVue Plus^TM spectrophotometer (GE Healthcare, Chicago, IL, USA) using a quartz cuvette with a 0.05 cm path length.

For another data set, the system named is platelets. As to the kind of experiment: Washed platelets flow cytometry analysis of activation (CD62P). Type of data set: cell-based, mouse. To be noted: washed platelets pooled from 4 treated ID8 tumor-bearing mice per group; resting and 3.33 U/mL thrombin; CD62P exposure. The procedure:
Washed platelets were freshly prepared as described elsewhere from a pool of 4 mouse blood samples by treatment group (ID8 allograft i.p. model). […] To promote activation, platelets were incubated with 3.33 U.mL^−1 thrombin (#D8537, Sigma-Aldrich) for 5 min, at room temperature. Platelets were probed with both a (FITC)-conjugated monoclonal anti-CD41 antibody (clone MWReg30; #553848, BD Pharmingen) and a (PE)-conjugated monoclonal anti-CD62P antibody (clone Wug.E9; #M130-2, Emfret Analytics) for 10 min, at room temperature, in the dark. IgG1-PE (clone R3-34; #P190_2, Emfret Analytics) and IgG1-FITC (clone R3-34; #553924, BD Pharmingen) were employed as isotype controls. Platelet isolation was performed by gating in forward and side scatter, as well as relying on CD41 positivity, while CD62P (P-selectin) membrane exposure reflects platelet activation.
Figure S2. […] 8 weeks old female and
(a) Photographs of spleen isolated on
Whitney U test statistical analyses (* p < 0.05).
mice having received chronic TAX2 or combination therapy. Upon sacrifice, blood was collected from
samples by treatment group.
investigated by flow cytometry. Platelet population was isolated based on anti‐CD41 positivity,
Activation was analyzed on […]
For orientation: In flow cytometry, cells or beads pass a laser one at a time.

For data set [2] the following is noted: freshly collected EDTA plasma from Sprague Dawley rats, 500 µL, spiked at 50 ng/mL, 2 h at 4 °C or room temperature, sampled every 30 min, HPLC-MS/MS, n = 2 per condition (method b35: 1 µM, 37 °C, human plasma).
The test system of data set [3] is SK-OV-3 human ovarian carcinoma cells. The conditions noted are these: SK-OV-3 model, 10 mg/kg i.p. thrice a week for 7 weeks. The procedure:
(§1) Suspensions of A2780 or SK-OV-3 human ovarian carcinoma cells were s.c. inoculated (5 × 10^6 cells in 200 µL per animal) into the left flank of BALB/c athymic nude mice. Tumor measurements (length, L; width, W) were performed twice a week, using a digital caliper, and total tumor volume was calculated according to V = 0.5 × L × W^2. For randomization, mice were allocated to groups (n = 13–16 in each) based on similar mean and distribution of tumor volume on day 13. […] Body weight (BW) was monitored every 2 to 3 days, while clinical signs and behavior pattern were daily checked until study termination. Loss of 15% BW or tumor volume exceeding 1 cm^3 were considered an indication for euthanasia, as well as severe tumor necrosis, as it was sometimes associated with loss of body fluid and/or infection.

Data set [4] concerns A2780 human ovarian carcinoma cells. To be noted: A2780 model, 10 mg/kg i.p. thrice a week for 2 weeks. The protocol: as §1
For data set [5], the target named is T1, recombinant mouse thrombospondin-1 with a C-terminal 6His tag (mouse, UniProt P35441 19-1170).
T1 construct: thrombospondin-1 (TSP-1), mouse, recombinant; also called rmTSP-1; TSP-1; source: bought: R&D Systems (#7859-TH); not shown: 6His, C-terminal, kept
As to the kind of experiment: SPR; Biacore T200; rmTSP-1 captured by its C-terminal 6His tag on anti-histidine antibody amine-coupled to a CM5 chip (2931 RU); peptides injected for 120 s at 30 uL/min, 25 °C; running buffer 10 mM HEPES, 0.15 M NaCl, 0.05% surfactant P20, 5 mM CaCl2, pH 7.4; single injections at 1 mM; single-cycle kinetics at 15.625-250 uM; contact-time experiment (30-600 s) at 500 uM TAX2; two-state reaction model, apparent KD. The conditions noted are these: both partners purified. (SPR reads the build-up and loss of mass on a sensor chip optically.)

T1 sequence (P35441 19-1170): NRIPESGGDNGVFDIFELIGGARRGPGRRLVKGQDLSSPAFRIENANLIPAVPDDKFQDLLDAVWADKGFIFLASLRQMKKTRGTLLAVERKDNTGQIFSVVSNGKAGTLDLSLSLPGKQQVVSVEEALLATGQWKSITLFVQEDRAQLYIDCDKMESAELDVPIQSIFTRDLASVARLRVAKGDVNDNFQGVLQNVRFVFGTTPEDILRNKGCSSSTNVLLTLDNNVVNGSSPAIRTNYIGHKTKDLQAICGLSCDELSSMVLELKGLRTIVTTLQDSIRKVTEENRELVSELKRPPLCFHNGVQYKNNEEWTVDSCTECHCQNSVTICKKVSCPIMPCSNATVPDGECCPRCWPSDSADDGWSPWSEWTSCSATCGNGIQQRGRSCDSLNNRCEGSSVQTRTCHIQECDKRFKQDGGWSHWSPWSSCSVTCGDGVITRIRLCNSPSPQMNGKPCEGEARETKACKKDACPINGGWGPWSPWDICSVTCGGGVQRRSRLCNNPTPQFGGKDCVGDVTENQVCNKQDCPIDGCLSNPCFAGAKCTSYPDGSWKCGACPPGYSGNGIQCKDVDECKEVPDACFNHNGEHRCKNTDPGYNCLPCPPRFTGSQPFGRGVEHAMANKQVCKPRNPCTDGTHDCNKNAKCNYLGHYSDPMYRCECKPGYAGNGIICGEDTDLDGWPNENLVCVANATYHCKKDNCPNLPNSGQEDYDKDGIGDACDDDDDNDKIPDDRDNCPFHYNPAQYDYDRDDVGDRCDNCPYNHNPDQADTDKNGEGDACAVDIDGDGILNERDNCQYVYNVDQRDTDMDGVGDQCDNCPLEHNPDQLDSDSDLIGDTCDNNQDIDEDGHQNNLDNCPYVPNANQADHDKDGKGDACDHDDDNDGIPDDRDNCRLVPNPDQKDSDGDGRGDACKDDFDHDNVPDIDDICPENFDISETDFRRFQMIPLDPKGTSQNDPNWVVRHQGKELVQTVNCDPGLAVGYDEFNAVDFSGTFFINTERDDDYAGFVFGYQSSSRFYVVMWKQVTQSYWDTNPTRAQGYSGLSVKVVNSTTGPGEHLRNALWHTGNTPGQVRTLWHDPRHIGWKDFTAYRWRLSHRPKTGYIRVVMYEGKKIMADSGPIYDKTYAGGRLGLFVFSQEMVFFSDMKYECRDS

For the molecule `CC(C)C[C@@H]1NC(=O)[C@H](CC(C)C)NC(=O)[C@H](CCC(N)=O)NC(=O)[C@H](CO)NC(=O)[C@H](C(C)C)NC(=O)[C@H](CCC(=O)O)NC(=O)[C@@H](N)CSSC[C@@H](C(=O)O)NC(=O)[C@H](C)NC(=O)[C@H](CC(=O)O)NC(=O)CNC(=O)[C@H](CCCCN)NC1=O` [TAX2], in data set [1], the “solubility in aqueous solvents” value is “completely soluble”. Also, the “impact on platelet ability to activate” value in the data set with platelets was “Neither TAX2 monotherapy nor combined to anti-PD-1 mAb had any impact”. Besides, the “stability in plasma (remaining TAX2, % of concentration at T0)” value in data set [2] is “remains stable in freshly collected plasma up to 2 hours”. Moreover, the “safety (body weight, clinical signs)” value in data set [3] and in data set [4] was “appeared to be safe” throughout.

B1: TAX2 cyclic peptide (peptide)
peptide: CEVSQLLKGDAC
modifications: disulfide 1-12 (inferred); also: acetate salt
notes: disulfide linked 12 amino-acid cyclic peptide stretch of CD47; The two end residues are replaced by cysteines to close the ring; also called TAX2 peptide; TAX2 drug candidate; source: synthetic peptide (solid-phase synthesis, Fmoc chemistry; Genecust), purity >98%
For the molecule B1, the binding result in data set [5] was “binds”.
